“And” between values parts separate entries of the source, which are not always exact repeats. Equal values may be shown once. “Also recorded” adds a separate entry of the source. No end group written: not given here.
Tests used:
prothrombinase [1] = molecular target: T1, prothrombinase (Homo sapiens, UniProt P00734); assay: Assay measuring thrombin formation (prothrombinase inhibition by peptides, DAPA fluorescence); format: biochemical
T1 construct: purchased Haematologic Technologies Inc. (Essex Junction, Vt.)
Experimental: Assay measuring thrombin formation. The formation of thrombin was analyzed using the fluorescent thrombin inhibitor DAPA as described using a Perkin Elmer LS-50B Luminescence Spectrometer (Perkin-Elmer LLC, Norwalk Conn.) with λex=280 nm, λem=550 nm and a 500 nm long pass filter in the emission beam (Schott KV-500). […] In all cases peptides were preincubated with factor tor Va prior to the assay as described in the legend to the figures. The final concentration of factor tor Va in the mixture was 4 nM with factor Xa at 10 nM, prothrombin at 350 nM, DAPA at 700 nM, in the presence of PCPS vesicles (10 μM). The initial rate of thrombin formation (nM IIa·min^−1) was calculated as described during the initial 5-10 sec of the reaction. To verify if the peptides have any effect on the active-site of thrombin, control experiments were performed as follows: a given peptide (at 100 μM) was incubated in the assay buffer containing DAPA (700 nM); the base line was monitored for 30 sec; thrombin (350 nM) was then added to the mixture and the fluorescent intensity resulting from the complexation of DAPA with the active site of thrombin was monitored for 60 sec. The slope of the reaction measuring thrombin formation in the presence of a given peptide during the first 5 sec was calculated and compared to the slope of a reaction obtained in the absence of peptide. It is noteworthy that under the conditions employed the thrombin-DAPA interaction occurred fast and the calculated slope of the reaction was sensitive to all parameters used. […] All experiments were performed in triplicates or as indicated. The concentration of each peptide given in the figures and figure legends is their final concentration in the assay. […] In some cases the data were also analyzed and plotted using DeltaGraph (DeltaPoint, Monterey, Calif.).
Specifically, peptides were incubated with factor tor Va as described herein at a fixed concentration (100 μM). The percent of factor tor Va cofactor activity was calculated by comparing the activity of prothrombinase in the presence of a given peptide to the activity of prothrombinase determined in a control reaction in the absence of peptide and in the presence of factor Xa. […] The control peptide represents a pentadecapeptide from the middle portion of factor tor Va heavy chain (P15H) (SEQ ID NO. 22). […] All other peptides from region 680-709 had no significant effect on prothrombinase activity.
HC3 represents amino acid sequence 690-699 of factor tor Va heavy chain; HC4 contains the sequence 695-704 of human factor tor Va heavy chain; P15H represents amino acid sequence 337-351 from the middle portion of human factor tor Va heavy chain. […] The concentration of each peptide given on the x axis represents its final concentration in the prothrombinase mixture. […] Thus, both peptides show similar inhibitory potential.

[2] = molecular target: T2, [OG488]-EGR-hXa-human factor tor Va (Homo sapiens, UniProt P00742); assay: Fluorescence anisotropy of preformed membrane-bound [OG488]-EGR-hXa-factor Va complex; format: binding; settings: up to 300 μM peptide
T2 construct: purchased Haematologic Technologies Inc. (Essex Junction, Vt.)
T2 sequence (P00742 41-179 limits assumed): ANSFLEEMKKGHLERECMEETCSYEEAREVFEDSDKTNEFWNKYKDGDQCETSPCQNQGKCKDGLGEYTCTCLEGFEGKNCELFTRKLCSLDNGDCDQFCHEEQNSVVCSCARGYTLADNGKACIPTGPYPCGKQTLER
T2 sequence (P00742 235-488 limits assumed): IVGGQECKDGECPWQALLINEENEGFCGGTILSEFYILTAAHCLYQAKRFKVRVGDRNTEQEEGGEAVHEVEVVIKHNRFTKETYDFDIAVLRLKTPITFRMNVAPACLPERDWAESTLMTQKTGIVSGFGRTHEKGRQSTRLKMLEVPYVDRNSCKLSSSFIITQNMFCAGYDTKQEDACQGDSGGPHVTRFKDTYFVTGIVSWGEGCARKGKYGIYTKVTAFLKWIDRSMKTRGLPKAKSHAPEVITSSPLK
Experimental: Fluorescence Anisotropy measurements. Fluorescence anisotropy of [OG488]-EGR-hXa was measured using a Perkin Elmer LS-50B Luminescence Spectrometer in L-format as recently described. Anisotropy measurements were performed in a quartz cuvette under constant stirring (low) with λex=490 nm, λem=520 nm with a long pass filter (Schott KV-520) in the emission beam. […] The concentration of peptide given in each graph is the final concentration of the peptide in the assay mixture. […] In some cases the data were also plotted using DeltaGraph (DeltaPoint, Monterey, Calif.).
HC3 and HC4 were also tested for their ability to interfere with the fluorescence anisotropy of a preformed complex composed of membrane-bound [OG488]-EGR-hXa-human factor tor Va as described. […] The peptides must thus impair another function of the cofactor within prothrombinase.

[3] = molecular target: T3, active-site-immobilized thrombin (Homo sapiens, UniProt P00734); assay: Direct binding of the peptides to thrombin-agarose (chromatography); settings: 400 μg peptide, 2.5 ml column, elution 2M NaCl
T3 construct: Factor Xa cleaves prothrombin to form thrombin; purchased Haematologic Technologies Inc. (Essex Junction, Vt.)
Experimental: Direct binding of the peptides to thrombin. Thrombin was immobilized onto agarose through the active site as described. Peptide solutions of HC1-HC5 (SEQ ID NO. 2-6, respectively), D13R (SEQ ID NO. 21), DYDYQ (SEQ ID NO. 11), and P15H (SEQ ID NO. 22) were dissolved in water to a given concentration and then diluted in 20 mM Hepes, 0.1 M NaCl, pH 7.4 in a manner that 400 μg was contained in each starting solution. In control experiments it was determined that the maximum amount of peptide that could be retained by the thrombin-agarose column was 400 μg. Since some of the peptides contain aromatic amino acid residues, their concentration was also measured by optical density.
Mass spectrometry instruments and conditions. The identity of all peptides found in the flow-through or the elution of the thrombin-agarose column was verified by mass spectrometry. Since the peptides were in a buffer solution, we used Liquid Chromatography/Mass Spectrometry (LC/MS) for their identification. In this procedure peptides are first separated from the salt content of the buffer using an HPLC system (HP 1100, HPLC gradient system, Agilent Technologies, Palo Alto Calif.) with a C18 column (1 mm×15 cm, GraceVydac, Hesperia Calif.) with buffers A (0.3% acetic acid in water) and B (0.3% acetic acid in acetonitrile). The elution of the column was monitored with a Micromass Quatro II ESI-Triple Quadrupole Mass Spectrometer (Waters, Milford Mass.). The data were collected using a Compaq Professional Workstation AP200 (Hewlett-Packard, Palo Alto Calif.) and analyzed by the software MassLynx v3.3 (Waters, Milford Mass.).
Direct interaction of hirudin-like peptides from factor tor Va heavy chain With thrombin-agarose. To ascertain that the peptides of interest are inhibitory of prothrombinase activity and contain a binding site for thrombin, the interaction of all peptides with active-site-immobilized thrombin was studied in chromatographic experiments and is shown in FIG. 5. In FIG. 5, small scale chromatography of hirudin-like peptides was performed on a 2.5 ml thrombin-agarose. Each run represents 400 μg of peptide. This amount of peptide was determined to saturate the specific sites of thrombin of the column used (2.5 ml). Elution was performed with 2M NaCl and was started at the point indicated by the arrow (fraction #30). The presence of the peptides in the corresponding fractions was monitored by absorbance at 280 nm (shown on the y axis) and by LC/MS (inset). […] Specifically, these peptides were treated similarly to all other peptides and similar fractions were collected. Aliquots from fractions #7 and #35 from each separate experiment were submitted to LC/MS analysis as described herein (depicted by the hatched arrows at the bottom of the chromatogram). The results from tube #7 from three chromatograms are depicted. The data are presented as % intensity of the signal as a function of the mass of the peptide divided by the charge (m/z). FIG. 5A, HC1 (Mr calculated 1268); FIG. 5B, HC2 (Mr calculated 1132); FIG. 5C, HC5 (Mr calculated 1053). The spectrum of HC1 has two major peaks: at 635.5 and at 424, and one minor peak at 1270 (1268+1). The peak at 635.5 represents the peptide (mass/charge) with two positive charges ([…]) i.e. [(1268+2=1270)]/2=635 whereas, the peak at 424 represents HC1 with three positive charges ([…]) i.e. [(1268+3=1271)]/3=424. […] HC5 spectrum has two major peaks: one at 528 and one at 352. The peak at 528 represents the peptide with two positive charges ([…]) i.e. [(1053+2=1055)]/2=527.5 while, the other peak represents HC5 with three positive charges ([M+31-]^2+) i.e. [(1053+3=1056)]/3=352. The minor peak at 1054 represents the peptide with one charge. It is noteworthy, that in gas phase the number of protons attached to each peptide depends on the number (quantity) of basic residues contained in each peptide. […] Thus, HC1 and HC5 are more likely to bind two or three protons than HC2. […]

[4] = system: factor V deficient plasma; assay: Clotting activity of recombinant factor V molecules
Experimental: Determination of factor V/tor Va clotting activity of the recombinant molecules. Cofactor activity of wild type and mutant molecules was measured in a clotting assay using factor V deficient plasma prior and after activation by thrombin (15 min, 37° C.) and RVV-V activator (2 hr, 37° C.) as described. The values were standardized to the percentage of control. A linear semi-log graph was constructed using known concentrations of purified factor V (U/ml as a function of clotting time). The assay endpoint was determined by visualization of the fibrin clot. The activity of the factor VNa solution (U/ml) was determined by extrapolation from the graph. The concentration of the recombinant molecules was determined by a recently described ELISA. Finally, the numbers were combined to obtain the specific activity of the recombinant factor V solutions (U/mg).

prothrombinase [5] = assay: Prothrombinase assay using purified reagents and chromogenic substrate (cofactor activity of recombinant factor Va species); settings: activated with RVV-V activator or factor Xa

Ki (prothrombinase [1]; calculated from IC50=Ki(1+S0/Km), Km 0.4 μM, S0 350 nM prothrombin, read-out: Ki of prothrombinase inhibition)	IC50 (prothrombinase [1]; factor Va 4 nM, factor Xa 10 nM, prothrombin 350 nM, PCPS 10 μM, peptide preincubated with factor Va)	type of inhibition of prothrombinase with respect to prothrombin (prothrombinase [1]; kinetic analyses, increasing prothrombin and peptide)	Substance	effect on prothrombinase / factor Va cofactor activity at fixed concentration (prothrombinase [1]; peptide 100 μM)	interference with binding of factor Va to [OG488]-EGR-hXa (anisotropy) [2]	interaction with immobilized thrombin (thrombin-agarose) [3]	ability to promote clotting [4]	Activity ([4]; factor V species at 2.5 nM) [U/ml]	Specific activity ([4]; factor V species at 2.5 nM) [U/mg]	clotting time ([4]; factor V species at 2.5 nM) [s]	times less cofactor activity than wild type molecule activated under similar conditions (prothrombinase [5]) [times]
6.3 µM and ~6.3 µM	12 µM and ~12 µM	competitive inhibitors	EESDADYDYQ [HC3]	inhibited prothrombinase; also recorded: complete inhibition	No significant decrease; also recorded: unable to interfere with the binding of factor tor Va	eluted from the column with high-salt buffer; also recorded: interact with immobilized thrombin					
			Factor VaRVV^2K2F: quadruple mutant activated with RVV-V activator				unable to promote clotting	0.002	2.4	73.1 ± 4	~22
